# Measurements reported in ChEMBL document CHEMBL1132065, “Synthesis and biological activity of oxo-7H-benzo[e]perimidine-4-carboxylic acid derivatives as potent, nonpeptide corticotropin releasing factor (CRF) receptor antagonists” (Bioorg Med Chem Lett, 1999).
# Key:
# [1] = target: T1, Corticotropin-releasing factor receptor 1 (Rattus norvegicus, UniProt P35353); assay: Antagonistic activity against [125I]-Tyr-ovine CRF binding to Corticotropin releasing factor receptor 1
# T1 sequence (P35353 whole entry): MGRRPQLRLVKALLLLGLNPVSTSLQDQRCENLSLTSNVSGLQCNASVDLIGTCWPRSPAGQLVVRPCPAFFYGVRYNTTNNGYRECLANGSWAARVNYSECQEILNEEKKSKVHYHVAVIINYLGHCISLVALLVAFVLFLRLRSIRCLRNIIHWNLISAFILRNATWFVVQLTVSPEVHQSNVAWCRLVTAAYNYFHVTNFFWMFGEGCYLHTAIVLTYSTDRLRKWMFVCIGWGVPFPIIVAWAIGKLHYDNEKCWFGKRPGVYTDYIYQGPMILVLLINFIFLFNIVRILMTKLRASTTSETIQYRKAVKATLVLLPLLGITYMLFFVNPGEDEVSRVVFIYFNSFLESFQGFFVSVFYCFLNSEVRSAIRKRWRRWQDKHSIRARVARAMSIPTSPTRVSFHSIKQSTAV
# [2] = target: T2, Corticotropin-releasing factor receptor 2 (Mus musculus, UniProt Q60748); assay: Antagonistic activity against [125I]-Tyr-ovine CRF binding to Corticotropin releasing factor receptor 2 beta
# T2 sequence (Q60748 whole entry): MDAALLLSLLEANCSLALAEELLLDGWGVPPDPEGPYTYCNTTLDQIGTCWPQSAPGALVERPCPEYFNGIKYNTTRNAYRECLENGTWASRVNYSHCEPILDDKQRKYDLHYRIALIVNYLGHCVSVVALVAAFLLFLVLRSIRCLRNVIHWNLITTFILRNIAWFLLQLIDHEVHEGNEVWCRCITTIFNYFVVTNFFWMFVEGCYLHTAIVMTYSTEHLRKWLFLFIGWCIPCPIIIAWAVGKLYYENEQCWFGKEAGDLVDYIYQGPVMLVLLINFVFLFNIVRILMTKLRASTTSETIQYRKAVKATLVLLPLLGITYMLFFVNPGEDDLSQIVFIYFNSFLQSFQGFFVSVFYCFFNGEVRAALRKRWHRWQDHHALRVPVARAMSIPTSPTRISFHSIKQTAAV
# [3] = target: T2, Corticotropin-releasing factor receptor 2; assay: Antagonistic activity against [125I]-Tyr-ovine CRF binding to Corticotropin releasing factor receptor 2 beta (30% inhibition at 100 uM)
# [4] = target: 5-hydroxytryptamine receptor 6 (Homo sapiens, UniProt P50406); assay: Binding affinity against 5-hydroxytryptamine 6 receptor
# Chain of 5-hydroxytryptamine receptor 6 (P50406 whole entry): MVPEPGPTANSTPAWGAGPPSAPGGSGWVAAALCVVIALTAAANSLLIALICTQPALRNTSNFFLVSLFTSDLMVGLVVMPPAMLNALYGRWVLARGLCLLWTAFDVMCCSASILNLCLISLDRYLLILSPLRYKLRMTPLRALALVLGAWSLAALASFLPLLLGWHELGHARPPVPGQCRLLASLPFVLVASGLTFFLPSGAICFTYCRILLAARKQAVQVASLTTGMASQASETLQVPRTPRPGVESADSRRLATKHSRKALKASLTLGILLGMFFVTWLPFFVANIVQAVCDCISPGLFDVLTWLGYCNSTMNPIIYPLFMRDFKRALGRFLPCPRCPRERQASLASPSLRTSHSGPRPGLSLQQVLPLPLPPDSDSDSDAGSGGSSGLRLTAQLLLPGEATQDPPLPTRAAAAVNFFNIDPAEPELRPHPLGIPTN
# [5] = target: 5-hydroxytryptamine receptor 7 (Homo sapiens, UniProt P34969); assay: Binding affinity against 5-hydroxytryptamine 7 receptor
# Chain of 5-hydroxytryptamine receptor 7 (P34969 whole entry): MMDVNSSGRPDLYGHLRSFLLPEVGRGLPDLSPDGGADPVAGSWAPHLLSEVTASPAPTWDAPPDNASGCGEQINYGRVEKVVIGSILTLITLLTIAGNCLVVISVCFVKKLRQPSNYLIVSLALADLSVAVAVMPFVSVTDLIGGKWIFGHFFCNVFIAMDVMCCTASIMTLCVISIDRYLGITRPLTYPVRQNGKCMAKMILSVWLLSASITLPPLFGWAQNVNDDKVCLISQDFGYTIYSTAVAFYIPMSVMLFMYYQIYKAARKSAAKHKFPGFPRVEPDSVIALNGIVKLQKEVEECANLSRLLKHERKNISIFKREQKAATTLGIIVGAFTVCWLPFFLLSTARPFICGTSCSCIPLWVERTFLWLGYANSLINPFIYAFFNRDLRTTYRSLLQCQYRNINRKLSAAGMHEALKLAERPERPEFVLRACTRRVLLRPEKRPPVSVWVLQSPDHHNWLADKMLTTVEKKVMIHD
# D(2) dopamine receptor = D(2) dopamine receptor (Homo sapiens, UniProt P14416); assay: Binding affinity against dopamine D2 receptor
# Chain of D(2) dopamine receptor (P14416 whole entry): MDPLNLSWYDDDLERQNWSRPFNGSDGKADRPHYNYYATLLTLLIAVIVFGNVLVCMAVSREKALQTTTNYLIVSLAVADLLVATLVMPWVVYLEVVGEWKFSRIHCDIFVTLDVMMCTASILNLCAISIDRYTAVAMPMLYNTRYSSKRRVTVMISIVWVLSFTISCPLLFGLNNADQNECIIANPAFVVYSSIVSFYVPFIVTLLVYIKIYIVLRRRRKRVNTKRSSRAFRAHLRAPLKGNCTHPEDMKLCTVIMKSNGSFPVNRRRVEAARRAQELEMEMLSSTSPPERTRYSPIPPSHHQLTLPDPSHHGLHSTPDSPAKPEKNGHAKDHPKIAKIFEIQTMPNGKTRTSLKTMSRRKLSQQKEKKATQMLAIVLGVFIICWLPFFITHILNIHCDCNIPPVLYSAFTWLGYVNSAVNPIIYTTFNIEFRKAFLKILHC
# [6] = Binding affinity against Galanin receptor; set-up: species or system Homo sapiens
# [7] = Binding affinity against Glucagon receptor using [125I]glucagon
# [8] = Binding affinity to Glp1 receptor using [125I]Glp-1 as radioligand
# [9] = target: T3, Neuropeptide Y receptor type 1 (Homo sapiens, UniProt P25929); assay: Binding affinity against Neuropeptide Y receptor type 1 using [125I]PYY
# T3 sequence (P25929 whole entry): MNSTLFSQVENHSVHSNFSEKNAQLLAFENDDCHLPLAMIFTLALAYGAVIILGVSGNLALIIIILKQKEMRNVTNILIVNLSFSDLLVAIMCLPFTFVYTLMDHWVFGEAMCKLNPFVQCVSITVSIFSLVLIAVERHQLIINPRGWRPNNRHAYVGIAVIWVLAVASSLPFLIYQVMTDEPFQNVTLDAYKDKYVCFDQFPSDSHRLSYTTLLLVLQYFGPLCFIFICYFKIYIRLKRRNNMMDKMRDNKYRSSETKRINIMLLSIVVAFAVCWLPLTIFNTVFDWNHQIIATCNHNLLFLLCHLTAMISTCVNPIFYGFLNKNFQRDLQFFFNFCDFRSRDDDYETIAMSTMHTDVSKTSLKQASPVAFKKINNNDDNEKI
Structure (SMILES),Ki [1],Ki [2],other results
NCCNC(=O)c1ccc2c3c(ncnc13)-c1ccccc1C2=O,> 10000 nM,> 10000 nM,–
NCCNC(=O)c1c2c(c3c(O)c4ccccc4c4ncnc1c34)=NCCN2,2050 nM,650 nM,–
NCCNC(=O)c1c2c(c3c(O)c4ccccc4c4ncnc1c34)=N[C@H]1CCCC[C@H]1N2,270 nM,830 nM,–
O=C(O)c1ccc2c3c(ncnc13)-c1ccccc1C2=O,–,–,Ki [3]: > 100 µM
N[C@@H]1CCCC[C@H]1NC(=O)c1c2c(c3c(O)c4ccccc4c4ncnc1c34)=N[C@H]1CCCC[C@@H]1N2,180 nM,86 nM,–
NCCNC(=O)c1c2c(c3c4c(ncnc14)-c1ccccc1C3=O)N[C@H]1CCCC[C@@H]1N2,200 nM,75 nM,–
N[C@H]1CCCC[C@@H]1NC(=O)c1c2c(c3c4c(ncnc14)-c1ccccc1C3=O)N[C@@H]1CCCC[C@H]1N2,110 nM,20 nM,Ki [4]: > 10 µM; Ki [5]: 1600 nM; Ki (D(2) dopamine receptor): 3.2 µM; Ki [6]: > 10 µM; Ki [7]: > 10 µM; Ki [8]: > 10 µM; Ki [9]: 4.2 µM
CN(C)C(=O)c1ccc2c3c(ncnc13)-c1ccccc1C2=O,–,> 10000 nM,–
N[C@H]1CCCC[C@H]1NC(=O)c1ccc2c3c(ncnc13)-c1ccccc1C2=O,> 10000 nM,> 10000 nM,–
N[C@@H]1CCCC[C@H]1NC(=O)c1ccc2c3c(ncnc13)-c1ccccc1C2=O,> 10000 nM,> 10000 nM,–
NCCNC(=O)c1c2c(c3c(O)c4ccccc4c4ncnc1c34)=N[C@@H]1CCCC[C@H]1N2,160 nM,45 nM,–
